Measured values: US9339508B2, “Use of 3-methoxy-pregnenolone for the preparation of a drug for treating a traumatic brain injury” (MAPREG, priority 2003, dated 2016)

Legend:
[1] = molecular target: purified tubulin and MAP2 (Homo sapiens, UniProt P11137); experiment: MAP2-induced polymerization of microtubules in vitro (optical density at 345 nm); type: biochemical
Protocol: Purified MAP2 and tubulin are mixed in the presence of GTP at 4° C. in a spectrophotometer cuvette. Polymerization is induced by heating at 37° C. and is followed by the increase in optical density (OD) which indicates the quantity of polymers formed.
This in vitro test measures the effect of molecules on the MAP2-induced polymerization of microtubules. This polymerization occurs when MAP2 proteins and tubulin are mixed at adequate concentrations in the presence of GTP. It is accompanied by an increase in optical density measured at 345 nm for 15 to 30 minutes with a UNICON spectrophotometer thermostated at 37° C. (FIG. 1).
Activity is measured by the increase in optical density at 345 nm of a mixture of purified tubulin and MAP2, incubated at 37° C. in the presence of GTP.

[2] = test system: α-tubulin in rat hippocampus; experiment: Microtubule dynamics in rat hippocampus (Tyr/Glu-Tub ratio, Acet-Tub); type: in vivo; settings: 10 mg/kg subcutaneously, single administration
Source text: Mean±SEM, n=6 per group. **P<0.01, *P<0.5 vs sesame oil.
The effects produced by neurosteroids were compared with those produced by acute administration of the antidepressant drug fluoxetine (selective serotonin reuptake inhibitor SSRI).
Neurosteroids and 3-Methoxy-PREG (43B) Levels

PC12 cells = experiment: Neuritic growth / sprouting of PC12 cells in the presence of NGF; type: cell-based, rat; settings: 30 μM; for Neuritic sprouting: 3 days, NGF 10 ng/ml, relative to PREG
Protocol: Each molecule was tested in three culture wells. Measurements were taken for 200 cells per well using Scion Image software.
Neurite (neurite) length was measured for 200 cells per well after 2, 5, and 8 days of culture.
To rest the effect of selected molecules on neuritic growth, we first used the PC12 line, which has long been employed in neurobiological research. In the presence of NOF (nerve growth factor), the cells of this line, which arise from a rat pheochromocytoma, form neuritic extensions containing MAP-associated microtubules.
Stimulation of neuritic sprouting is conducted on PC12 cells differentiated in the presence of NGF (10 ng/ml) and the steroid being tested (30 μM) for 3 days. For each condition, the average length of the longest 200 neurites in each cell is measured simultaneously for 3 cultures.

[3] = molecular target: T1, human progesterone receptor (PR) (Homo sapiens, UniProt P06401); experiment: Test of progesterone receptor agonist activity (luciferase transactivation, HEK293T); type: cell-based; settings: 24 hours, increasing amounts
T1 construct: expressed in transfected cells; host or cells: HEK293T cells
T1 sequence (P06401 1-933): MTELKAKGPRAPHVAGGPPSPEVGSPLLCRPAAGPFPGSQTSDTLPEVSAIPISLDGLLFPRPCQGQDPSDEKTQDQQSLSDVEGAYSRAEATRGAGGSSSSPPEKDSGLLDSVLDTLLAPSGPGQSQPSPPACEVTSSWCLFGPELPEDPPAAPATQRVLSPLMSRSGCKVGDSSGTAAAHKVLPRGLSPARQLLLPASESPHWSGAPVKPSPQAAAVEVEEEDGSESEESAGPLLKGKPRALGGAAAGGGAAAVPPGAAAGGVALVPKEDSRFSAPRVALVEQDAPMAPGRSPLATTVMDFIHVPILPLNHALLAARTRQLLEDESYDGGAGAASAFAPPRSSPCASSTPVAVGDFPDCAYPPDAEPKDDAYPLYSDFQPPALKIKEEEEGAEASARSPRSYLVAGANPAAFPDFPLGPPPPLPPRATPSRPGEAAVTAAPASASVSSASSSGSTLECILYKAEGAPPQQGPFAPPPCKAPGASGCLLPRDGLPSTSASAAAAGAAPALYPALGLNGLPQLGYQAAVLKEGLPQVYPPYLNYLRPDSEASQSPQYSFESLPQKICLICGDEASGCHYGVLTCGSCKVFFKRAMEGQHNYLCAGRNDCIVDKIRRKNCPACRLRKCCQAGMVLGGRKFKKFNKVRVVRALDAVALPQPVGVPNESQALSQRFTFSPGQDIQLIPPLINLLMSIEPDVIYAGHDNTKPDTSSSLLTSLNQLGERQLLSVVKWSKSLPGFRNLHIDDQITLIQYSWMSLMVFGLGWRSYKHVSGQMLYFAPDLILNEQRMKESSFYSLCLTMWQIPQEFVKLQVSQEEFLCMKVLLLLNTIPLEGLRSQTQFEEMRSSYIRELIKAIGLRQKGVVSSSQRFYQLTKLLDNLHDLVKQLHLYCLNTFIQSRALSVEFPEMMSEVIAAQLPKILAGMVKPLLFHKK
Protocol: (§1) The main experimental setting used is the following: HEK293T cells were transiently transfected, using calcium phosphate precipitation technology, with expression receptors pSG5hPR (which permits expression of human progesterone receptor (PR)), pFC31-luc (contains the luciferase gene under the control of the MTV promoter, which is in turn activated by binding of a progestin to progesterone receptor) and pcbetagal (which permits expression of betagalactosidase), and cultured during 24 hours with increasing amounts of various compositions: • 1. […] Test of progesterone receptor […] activity: transfected cells were cultured with progesterone (1 nM) and increasing amounts of RU486 (a well-known progesterone receptor antagonist) or 3-methoxy-pregnenolone. • With this setting, a compound with progesterone receptor antagonist activity competes with progesterone for the occupation of progesterone receptor and results in a progressive loss of transactivation activity when the amount of this compound is increased compared to progesterone. Results

[4] = molecular target: T1, human progesterone receptor (PR); experiment: Test of progesterone receptor antagonist activity (luciferase transactivation, HEK293T); type: cell-based; settings: with progesterone 1 nM, increasing amounts
Protocol: as §1

PC12 cell line = experiment: Cellular toxicity on the PC12 cell line; type: cell-based, rat; settings: concentrations as high as solubility limits
Protocol: Cellular toxicity tests are carried out routinely on the PC12 cell line.

[5] = test system: transgenic mice expressing the longest isoform of human tau protein; experiment: RotaRod motor incoordination in transgenic tau mice; type: in vivo, mouse; settings: subcutaneous implant releasing 0.38 mg per day for 90 days
Source text: FIG. 8: Effect of molecule 43B on the motor incoordination of transgenic mice expressing the longest isoform of human tau protein in their neurons. […] The maximum speed of rotation of the RotaRod drum before the […] falls is a measurement of motor coordination (higher values correspond to a better treatment effect).
In order to evaluate the therapeutic potential of 433 to treat Alzheimer-type neurodegenerative diseases, a homozygous transgenic line of mice, such as described by Götz (EMBO J. 1995; 14(7):1304-13), can be used.
These mice express the longest human tau protein isoform. They present symptoms of neurological dysfunction expressed as muscular weakness and a reduction in motor coordination which correlate histologically with the appearance of abnormal neurites and hyperphosphorylated tau proteins as is seen in Alzheimer's disease. This pathological phosphorylation decreases the affinity of tau for microtubules and favors its aggregation.
A breeding program was undertaken at Bicêtre and genotyping made it possible to select mice homozygous for the transgene. […] The implants released 0.38 mg of steroid per day for 90 days. The progression of motor incoordination was followed by repeated RotaRod tests.

Sprague Dawley rats = experiment: Forced swimming test (FST); type: in vivo, rat; settings: 10 mg/kg subcutaneously, 24, 5, 1 h before testing
Protocol: Drugs were administered following the traditional dosing regimen used in the FST consisting of three injections: 24, 5, 1 h before testing.
The FET is currently the most widely used animal model for assessing depression related behavior and antidepressant drug activity in rodents (Cryan et al., Neubiorev. 2005). Rats are placed in an inescapable cylinder of water where they develop an immobile posture believed to reflect a “depressive”-like state. The Lime rats spend immobile is decreased by drugs exerting antidepressant activity.
Additional behaviors can be detected in the FST; namely, climbing and swimming. It has been shown that swimming behavior is sensitive to SSRIs such as fluoxetine whereas climbing is sensitive to norepinephrine re-uptake inhibitors (NRI) such as desipramine.

[6] = 40 μM, compared to solvent alone

Chain of purified tubulin and MAP2 (P11137 whole entry): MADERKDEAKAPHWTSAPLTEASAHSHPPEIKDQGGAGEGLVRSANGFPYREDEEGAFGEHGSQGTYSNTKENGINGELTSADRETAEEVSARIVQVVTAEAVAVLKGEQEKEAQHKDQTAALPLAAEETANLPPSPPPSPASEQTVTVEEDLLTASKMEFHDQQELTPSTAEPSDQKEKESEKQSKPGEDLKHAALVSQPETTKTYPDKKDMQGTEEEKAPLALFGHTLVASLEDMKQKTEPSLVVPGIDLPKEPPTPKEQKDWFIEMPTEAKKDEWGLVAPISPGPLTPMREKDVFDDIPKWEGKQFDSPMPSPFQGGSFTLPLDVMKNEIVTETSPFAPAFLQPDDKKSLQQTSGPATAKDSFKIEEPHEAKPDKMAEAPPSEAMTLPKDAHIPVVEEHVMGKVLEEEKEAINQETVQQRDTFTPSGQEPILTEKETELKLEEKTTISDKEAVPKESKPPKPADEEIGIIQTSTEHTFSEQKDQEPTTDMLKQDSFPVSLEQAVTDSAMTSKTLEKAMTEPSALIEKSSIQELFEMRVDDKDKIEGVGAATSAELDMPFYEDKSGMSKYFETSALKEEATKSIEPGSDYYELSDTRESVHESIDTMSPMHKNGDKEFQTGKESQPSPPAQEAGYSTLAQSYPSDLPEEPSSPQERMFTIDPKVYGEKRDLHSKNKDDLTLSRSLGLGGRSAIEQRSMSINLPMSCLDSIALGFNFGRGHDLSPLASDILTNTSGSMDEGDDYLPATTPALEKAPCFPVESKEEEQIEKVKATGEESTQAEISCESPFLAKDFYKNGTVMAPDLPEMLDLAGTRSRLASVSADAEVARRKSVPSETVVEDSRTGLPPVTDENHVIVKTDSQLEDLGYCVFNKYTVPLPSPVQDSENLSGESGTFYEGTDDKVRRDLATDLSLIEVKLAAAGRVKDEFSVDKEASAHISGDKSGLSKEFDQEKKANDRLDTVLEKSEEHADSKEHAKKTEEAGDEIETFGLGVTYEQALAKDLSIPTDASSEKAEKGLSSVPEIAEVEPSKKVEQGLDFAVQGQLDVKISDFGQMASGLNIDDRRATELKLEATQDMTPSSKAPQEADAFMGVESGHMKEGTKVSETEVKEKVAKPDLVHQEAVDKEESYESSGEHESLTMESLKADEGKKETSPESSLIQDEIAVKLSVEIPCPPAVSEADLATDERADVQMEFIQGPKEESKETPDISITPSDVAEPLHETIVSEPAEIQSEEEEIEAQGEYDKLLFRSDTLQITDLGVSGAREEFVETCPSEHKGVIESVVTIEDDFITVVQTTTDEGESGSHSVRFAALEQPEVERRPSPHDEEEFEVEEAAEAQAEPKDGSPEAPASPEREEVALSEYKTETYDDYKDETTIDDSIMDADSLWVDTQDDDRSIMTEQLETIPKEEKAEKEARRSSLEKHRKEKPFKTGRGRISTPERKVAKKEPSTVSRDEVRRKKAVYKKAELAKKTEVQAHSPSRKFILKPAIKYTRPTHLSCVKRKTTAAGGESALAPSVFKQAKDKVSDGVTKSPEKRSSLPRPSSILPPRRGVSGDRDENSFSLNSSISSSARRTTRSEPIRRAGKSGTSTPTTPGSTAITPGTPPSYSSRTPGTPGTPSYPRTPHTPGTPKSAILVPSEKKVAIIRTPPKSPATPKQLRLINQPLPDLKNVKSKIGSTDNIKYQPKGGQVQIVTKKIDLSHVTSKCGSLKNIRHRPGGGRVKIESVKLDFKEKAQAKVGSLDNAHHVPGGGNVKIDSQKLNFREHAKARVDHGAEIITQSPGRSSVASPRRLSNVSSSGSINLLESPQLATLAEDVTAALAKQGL

**Q.** For pregnenolone sulfate, which microtubule polymerization [1] is on record?
**A.** do not stimulate polymerization

**Q.** For `CNCCC(Oc1ccc(C(F)(F)F)cc1)c1ccccc1` (centres unmarked) [fluoxetine], which “Acet-Tub (stable acetylated α-tubulin)” value [2] is on record?
**A.** tendency to increase

**Q.** What about the Tyr/Glu-Tub ratio ([2]; 3 h) of the same molecule?
**A.** did not change

**Q.** Which Neuritic sprouting (PC12 cells) does the source give for `CO[C@H]1CC[C@@]2(C)[C@@H](CC[C@@H]3[C@@H]2CC[C@]2(C)[C@@H](C(C)=O)CC[C@@H]32)C1` [3β-methoxy-5α-pregnane-20-one] here?
**A.** +++

**Q.** For `CC(=O)[C@H]1[C@H](C)C[C@H]2[C@@H]3CC=C4C[C@@H](O)CC[C@]4(C)[C@H]3CC[C@@]21C` [PREG-16α-methyl], which Neuritic sprouting (PC12 cells) is on record?
**A.** ++ (equal to)

**Q.** For `CC(=O)O[C@H](C)[C@H]1CC[C@H]2[C@@H]3CC=C4C[C@@H](O)CC[C@]4(C)[C@H]3CC[C@]12C` [Pregna-5-ene-3β,20β-diol-20-acetate], which Neuritic sprouting (PC12 cells) is on record?
**A.** ++ (equal to)

**Q.** Which results are given for `CC(=O)[C@H]1CC[C@H]2[C@@H]3CCC4=CC(=O)CC[C@]4(C)[C@H]3CC[C@]12C` [progesterone, reference compound]?
**A.** microtubule polymerization [1]: do not stimulate polymerization; progesterone receptor agonist activity (transactivation) [3]: permits a transactivation activity leading to the expression of luciferase

**Q.** Which Neuritic sprouting (PC12 cells) does the source give for `CC(=O)[C@@]12C[C@@H]1C[C@H]1[C@@H]3CC=C4C[C@@H](O)CC[C@]4(C)[C@H]3CC[C@@]12C` [PREG-16α,17α-methylene] here?
**A.** + (lower than)

**Q.** For PREG-16α,17α-epoxy, which Neuritic sprouting (PC12 cells) is on record?
**A.** + (lower than)

**Q.** For `CO[C@H]1CC[C@@]2(C)C(=CC[C@@H]3[C@@H]2CC[C@@]2(C)[C@H]3CC[C@@]2(C(C)=O)C(Cl)Cl)C1` [3β-methoxy-pregna-5-ene-20-one-17α-dichloromethyl], which Neuritic sprouting (PC12 cells) is on record?
**A.** +++

**Q.** With `CC#C[C@]1(O)CC[C@H]2[C@@H]3CCC4=CC(=O)CCC4=C3[C@@H](c3ccc(N(C)C)cc3)C[C@@]21C` [RU486] as the molecule, how does the “progesterone receptor antagonist activity” value [4] read?
**A.** very high antagonist activity

**Q.** How did the microtubule polymerization [1] turn out when `CC(=O)[C@H]1CC[C@H]2[C@@H]3CC=C4C[C@@H](O)CC[C@]4(C)[C@H]3CC[C@]12C` [PREG, pregnenolone] was run?
**A.** activates microtubule polymerization

**Q.** What about the “Lag time of microtubule polymerization” value [1, 6] of the same molecule?
**A.** decreased

**Q.** And the “polymerization rate and quantity of microtubules” value [1, 6]?
**A.** clearly increase

**Q.** What about the “increase in the average length of the neurites” value (PC12 cells; 3 days of culture, NGF) of the same molecule?
**A.** 60%

**Q.** What about the Neuritic sprouting (PC12 cells) of the same molecule?
**A.** ++ (equal to)

**Q.** What about the cellular toxicity (PC12 cell line) of the same molecule?
**A.** do not demonstrate toxicity

**Q.** What about the “motor dysfunction (RotaRod)” value [5] of the same molecule?
**A.** Only the 3-methoxy-PREG had a beneficial effect

**Q.** And the “Acet-Tub (stable acetylated α-tubulin)” value [2]?
**A.** significantly decreased

**Q.** And the “rat climbing behavior in the FST” value (Sprague Dawley rats)?
**A.** not changed

**Q.** And the “rat swimming in the FST” value (Sprague Dawley rats)?
**A.** significantly increased

**Q.** How did the Neuritic sprouting (PC12 cells) turn out when `CO[C@H]1CC[C@@]2(C)C(CCC3C2CC[C@@]2(C)C3CC[C@@H]2[C@@H](C)O)C1` (stereo partly drawn) [3β-methoxy-5α-pregnane-20β-ol] was run?
**A.** ++ (equal to)
